Measured values reported in patent US9201014B2, “Development of photostable near-IR cyanine dyes for in vivo imaging” (National University of Singapore, priority 2010, dated 2015).
Each block holds one compound with its values, some of them ahead of it.

Assays:
[1] = Time-course fluorescence measurements (photobleaching rate constants) of CyN and CyNA derivatives in HEPES buffer; format: physicochemical; conditions: for k, rate of photobleaching: 10 μM in 10 mM HEPES pH 7.4, 1% DMSO, pseudo-first order; for kCyN/kCyNA: ratio of photobleaching rate constants, aqueous media
Method: Values were fitted to a non-linear regression one-phase exponential decay (GraphPad Prism 5.0). Detailed statistics for the one-phase decay analysis of the CyN compounds and 1 follow: Photodecomposition rate constants were determined by plotting -ln(F/F0) vs time, and calculated using a pseudo-first order rate equation. See […]., et al., Photochem. Photobiol. 2000, 72, 392-398.

[2] = Absorbance and fluorescence maximum wavelengths and quantum yields of the CyNA library; format: physicochemical; conditions: for λabs, absorbance maximum wavelength / λem, fluorescence maximum wavelength: CyNA library; for φ, quantum yield: in DMSO, Cardiogreen as standard
How it was run: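 Absorption and emission maxima and quantum yields of the 80-member amine-derivatized CyNA library were measured on a plate spectrophotometer.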

[3] = Primary screening of photostability of the CyNA library (time-course fluorescence, 8 h); format: physicochemical; design: F/Fo, fluorescent intensity at 8 hours vs 0 hours: unit: %; conditions: 10 μM in HEPES 100 mM pH 7.4, 2% DMSO
How it was run: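 CyNA dyes at 10 μM in 100 mM HEPES pH 7.4 with 2% DMSO irradiated by xenon lamp for 8 h. Fluorescence (ex/em 790-820 nm) read every 10 min; stability given as F8h/Fo.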

[4] = Rates of photobleaching of CyNA-414 and CyN-414; format: physicochemical; conditions: for k, rate of photobleaching: 10 μM in 10 mM HEPES pH 7.4, 1% DMSO, xenon flash lamp, 12 hours
Method: 10-μM solutions of CyNA-414 and CyN-414 in 10 mM HEPES buffer (pH 7.4) containing 1% DMSO were placed in a 96-well black plate, and fluorescence intensity measurements (n=3) were recorded every 10 minutes for a total period of 12 hours (excitation-emission: 640-750 nm for CyN-414, and 790-820 nm for CyNA-414) under a xenon flash lamp. Values were fitted to a non-linear regression one-phase exponential decay (GraphPad Prism 5.0).

[5] = in DMSO; cited from earlier work
[6] = Absorbance/fluorescence maxima, quantum yields and extinction coefficients of CyN compounds; format: physicochemical
Method: The absorbance and fluorescence maximum wavelengths and extinction coefficients of CyN-111, 165, 272 and 295 were measured using 10-μM solutions of CyN-111, CyN-165, CyN-272 or CyN-295 in 10 mM HEPES buffer (pH 7.4) containing 1% DMSO. Quantum yields were measured in DMSO, using Cardiogreen as a standard (φ: 0.13, in DMSO).

[7] = format: physicochemical
Method: As a primary evaluation of photo stability, the decrease in fluorescence intensity of the 80 CyNA compounds was measured (see Table 2). The average decrease in fluorescence intensity after 8 hours of irradiation by a xenon lamp was approximately 18%. A subset of the most photostable compounds (i.e., F/Fo reported in Table 2 was greater than or equal to 95) was examined under stronger irradiation in various buffers.
10-μM CyNA solutions in 10 mM HEPES buffer (pH 7.4) or PBS (pH 7.3) containing 1% DMSO were placed in a 96-well black plate, and irradiated for periods of 15 minutes up to 2 hours with a high-intensity UV lamp (100 W, 365 nm) at a 2-cm distance. Values are represented as means (n=2), and fitted to a non-linear regression one-phase exponential decay (GraphPad Prism 5.0). Results not shown.

[8] = Primary screen of SERS intensities of CyNAMLA-functionalized AuNPs (compact Raman scanner); format: physicochemical; conditions: for Raman intensity: SERS spectra of CyNAMLA-functionalized AuNPs, excitation at 785 nm, laser power 60 mW
Method: FIG. 15 is a graph of the comparative surface-enhanced Raman spectroscopy (SERS) intensities of members of the CyNAMLA library measured with an excitation wavelength of 785 nm and a laser power of 60 mW in a compact Raman scanner.
The CyNAMLA compounds were adsorbed onto AuNPs having a diameter of approximately 60 nm, and the SERS properties of the resulting CyNAMLA-functionalized AuNPs were evaluated using a compact Raman scanner. Among metal nanoparticles, AuNPs are particularly suitable for in vivo applications due to their low toxicity, adaptability to bioconjugation, and reproducible signal intensity and quantification.

[9] = Characterization of the CyNAMLA library (absorbance maximum wavelengths); format: physicochemical; conditions: absorbance maximum wavelength of CyNAMLA library compounds
Method: The amine group of 21 was protected using di-tert-butyl dicarbonate then derivatized with 80 different primary amines (for structures, see FIGS. 14A-14D). After acetylation of the newly-introduced amine, the compounds were treated with a solution of TFA-DCM (1:9) to remove the tert-butylcarbamate protecting group. The deprotected amine was then coupled to lipoic acid to yield CyNAMLA derivatives with an average purity of 90% (for HPLC-determined purities, see Table 6).

[10] = Formation of aggregates: absorbance spectrum in DMSO vs PBS; format: physicochemical
[11] = Photobleaching of CyNE790 and ICG-sulfo-OSu in PBS; format: physicochemical; conditions: photobleaching experiments
Excerpt: CyNE790 was also compared to ICG-sulfo-OSu, a commercially available succinimidyl ester of ICG (for chemical structures of CyNE790 and ICG-sulfo-OSu, see FIG. 8).

[12] = Photophysical properties of CyNE790 and ICG-sulfo-OSu; format: physicochemical
Method: FIG. 7A is an absorbance spectrum of 10-μM solutions of CyNA-414, CyNE790, ICG and ICG-sulfo-OSu in DMSO and PBS.
FIG. […]
After corroborating the spectral properties of CyNE790 as a fluorescent NIR dye, its applicability for protein conjugation was assessed by comparing CyNE790 to ICG-sulfo-OSu, the commercially available succinidimyl ester of ICG. […] However, the application of ICG to molecular imaging has been limited because its fluorescence is drastically quenched after protein conjugation.

[13] = 10 μM in 10 mM HEPES pH 7.4, 1% DMSO

Structure (SMILES): CCCN1/C(=C/C=C2\CCCC(/C=C/C3=[N+](CCC)c4ccccc4C3(C)C)=C2N(CCc2ccccn2)C(C)=O)C(C)(C)c2ccccc21.[I-] [CyNA-111]
k, rate of photobleaching [1]: 3.41e-06 s⁻¹ | kCyN/kCyNA [1]: 12 | λabs, absorbance maximum wavelength [2]: 804 nm | λem, fluorescence maximum wavelength [2]: 818 nm | φ, quantum yield [2]: 0.11 | F/Fo, fluorescent intensity at 8 hours vs 0 hours [3]: 96 | max RFU, maximum relative fluorescence units [3]: 565.6

Structure (SMILES): CC1(C)C(/C=C/C=C/C=C/C=C2\N(CCCCS(=O)(=O)[O-])c3ccc4ccccc4c3C2(C)C)=[N+](CCCCS(=O)(=O)[O-])c2ccc3ccccc3c21.[Na+] [Cardiogreen]
φ of quantum yield standard [5]: 0.13

Structure (SMILES): CCCN1/C(=C/C=C2\CCCC(/C=C/C3=[N+](CCC)c4ccccc4C3(C)C)=C2NCCCOC)C(C)(C)c2ccccc21.[I-] [CyN-165]
ε, extinction coefficient [6, 13]: 0.352 · 10^5 cm^−1M^−1 | λabs [6, 13]: 640 nm | λem [6, 13]: 762 nm | φ, quantum yield ([6]; in DMSO, Cardiogreen as standard): 0.37 | k, rate of photobleaching [1]: 3.49e-05 s⁻¹

Structure (SMILES): CCCN1/C(=C/C=C2\CCCC(/C=C/C3=[N+](CCC)c4ccccc4C3(C)C)=C2N(CCCN2CCCCC2C)C(C)=O)C(C)(C)c2ccccc21.[I-] (stereo not drawn) [CyNA-414]
photostability under stronger irradiation in various buffers [7]: best photostability | k, rate of photobleaching [4]: 2.5e-06 s⁻¹ | kCyN/kCyNA ([4]; CyN-414 vs CyNA-414): 7 | λabs, absorbance maximum wavelength [2]: 804 nm | λem, fluorescence maximum wavelength [2]: 819 nm | φ, quantum yield [2]: 0.13 | F/Fo, fluorescent intensity at 8 hours vs 0 hours [3]: 100 | max RFU, maximum relative fluorescence units [3]: 925.5

Structure (SMILES): CCCN1/C(=C/C=C2\CCCC(/C=C/C3=[N+](CCC)c4ccccc4C3(C)C)=C2N(CCCOC)C(C)=O)C(C)(C)c2ccccc21.[I-] [CyNA-165]
k, rate of photobleaching [1]: 4.53e-06 s⁻¹ | kCyN/kCyNA [1]: 8 | λabs, absorbance maximum wavelength [2]: 806 nm | λem, fluorescence maximum wavelength [2]: 821 nm | φ, quantum yield [2]: 0.09 | F/Fo, fluorescent intensity at 8 hours vs 0 hours [3]: 94 | max RFU, maximum relative fluorescence units [3]: 775.1

Structure (SMILES): CCCN1/C(=C/C=C2\CCCC(/C=C/C3=[N+](CCCNC(=O)CCCCC4CCSS4)c4ccccc4C3(C)C)=C2N(CCc2cccc(F)c2)C(C)=O)C(C)(C)c2ccccc21.O=C([O-])C(F)(F)F (stereo not drawn) [CyNAMLA-405]
Raman intensity [8]: 12149 | λabs (max) [9]: 805 nm

Structure (SMILES): CCCN1/C(=C/C=C2\CCCC(/C=C/C3=[N+](CCCNC(=O)CCCCC4CCSS4)c4ccccc4C3(C)C)=C2N(Cc2cccc(OC)c2OC)C(C)=O)C(C)(C)c2ccccc21.O=C([O-])C(F)(F)F (stereo not drawn) [CyNAMLA-124]
Raman intensity [8]: 2201 | λabs (max) [9]: 804 nm

Structure (SMILES): CCCN1/C(=C/C=C2\CCCC(/C=C/C3=[N+](CCCNC(=O)CCCCC4CCSS4)c4ccccc4C3(C)C)=C2N(Cc2cccc(Br)c2)C(C)=O)C(C)(C)c2ccccc21.O=C([O-])C(F)(F)F (stereo not drawn) [CyNAMLA-341]
Raman intensity [8]: 1071 | λabs (max) [9]: 804 nm

Structure (SMILES): CCCN1/C(=C/C=C2\CCCC(/C=C/C3=[N+](CCCNC(=O)CCCCC4CCSS4)c4ccccc4C3(C)C)=C2N(C(C)=O)C2CCCCC2)C(C)(C)c2ccccc21.O=C([O-])C(F)(F)F (stereo not drawn) [CyNAMLA-164]
Raman intensity [8]: 4777 | λabs (max) [9]: 803 nm

Structure (SMILES): CCCCCCCN(C(C)=O)C1=C(/C=C/C2=[N+](CCCNC(=O)CCCCC3CCSS3)c3ccccc3C2(C)C)CCC/C1=C\C=C1\N(CCC)c2ccccc2C1(C)C.O=C([O-])C(F)(F)F (stereo not drawn) [CyNAMLA-277]
Raman intensity [8]: 2046 | λabs (max) [9]: 804 nm

Structure (SMILES): CCCN1/C(=C/C=C2\CCCC(/C=C/C3=[N+](CCC)c4ccccc4C3(C)C)=C2N(CC)C(C)=O)C(C)(C)c2ccccc21.[I-] [CyNA-295]
k, rate of photobleaching [1]: 3.81e-06 s⁻¹ | kCyN/kCyNA [1]: 8 | λabs, absorbance maximum wavelength [2]: 806 nm | λem, fluorescence maximum wavelength [2]: 820 nm | φ, quantum yield [2]: 0.11 | F/Fo, fluorescent intensity at 8 hours vs 0 hours [3]: 100 | max RFU, maximum relative fluorescence units [3]: 698.6

The remaining lines, values ahead:

k, rate of photobleaching [4]: 1.75e-05 s⁻¹
Structure (SMILES): CCCN1/C(=C/C=C2\CCCC(/C=C/C3=[N+](CCC)c4ccccc4C3(C)C)=C2NCCCN2CCCCC2C)C(C)(C)c2ccccc21.[I-] (stereo not drawn) [CyN-414]

absorbance maximum in DMSO ([10]; 10 μM, DMSO): 780 nm | absorbance maximum in PBS ([10]; 10 μM, PBS): 695 nm | formation of aggregates in aqueous solution ([10]; spectral profile DMSO vs PBS): formation of aggregates | maximum relative fluorescence units (rfu) [11]: 136 rfu | Quantum Yield (DMSO) ([12]; DMSO, ICG as standard): 12% | Quantum Yield (aqueous media) ([12]; PBS pH 7.3, 0.1% DMSO): 0.4% | ε (aqueous media) ([12]; PBS pH 7.3, 0.1% DMSO): 42,000 M^−1 · cm^−1
Structure (SMILES): CC1(C)C(/C=C/C=C/C=C/C=C2\N(CCCCS(=O)(=O)[O-])c3ccc4ccccc4c3C2(C)C)=[N+](CCCCCC(=O)ON2C(=O)CC(S(=O)(=O)[O-])C2=O)c2ccc3ccccc3c21.[Na+] (stereo not drawn) [ICG-sulfo-OSu, reference compound]

Raman intensity [8]: 18833 | λabs (max) [9]: 804 nm
Structure (SMILES): CCCN1/C(=C/C=C2\CCCC(/C=C/C3=[N+](CCCNC(=O)CCCCC4CCSS4)c4ccccc4C3(C)C)=C2N(CCCN2CCCC2)C(C)=O)C(C)(C)c2ccccc21.O=C([O-])C(F)(F)F (stereo not drawn) [CyNAMLA-611]

Raman intensity [8]: 1408 | λabs (max) [9]: 804 nm
Structure (SMILES): CCCN1/C(=C/C=C2\CCCC(/C=C/C3=[N+](CCCNC(=O)CCCCC4CCSS4)c4ccccc4C3(C)C)=C2N(C(C)=O)C(C)CCc2ccccc2)C(C)(C)c2ccccc21.O=C([O-])C(F)(F)F (stereo not drawn) [CyNAMLA-275]

Raman intensity [8]: 27810 | SERS intensity compared to DTTC, primary screen ([8]; on AuNPs, 785 nm, 60 mW): exceeded the signal of DTTC | λabs (max) [9]: 805 nm
Structure (SMILES): CCCN1/C(=C/C=C2\CCCC(/C=C/C3=[N+](CCCNC(=O)CCCCC4CCSS4)c4ccccc4C3(C)C)=C2N(Cc2cc(OC)cc(OC)c2)C(C)=O)C(C)(C)c2ccccc21.O=C([O-])C(F)(F)F (stereo not drawn) [CyNAMLA-262]
